# Measured values taken from patent US20060228417A1, “Mucoadhesive composition comprising polyacrylate and chemoattractant” (priority 2003, published 2006).
# Where no end group is shown, it is not given here.
# Legend:
# [1] = system: human DC in xenografts of HPV-transformed keratinocytes (CasKi cell line); experiment: Xenograft assay in NOD/SCID mice: DC recruitment into transplants of HPV-transformed keratinocytes; format: in vivo
# Protocol: HPV-transformed keratinocytes (2×10^5, CasKi cell line, ATCC, CRL-1550) were plated on collagen gel (2 mg/ml of type I collagen isolated from rat tail tendons) inserted in Teflon rings (Renner, Dannstadt, Germany) and maintained in culture for one day before transplantation onto mice. Twelve-week-old NOD-scid/scid mice were used for this study. They were housed under sterile conditions and water and feed were provided ad libitum. Before transplantation, the cells were washed and the medium was drained. […] Fluorescent DC were counted in the epithelium and, after anti-keratin immunolabeling, the epithelial surface was evaluated with a computerized system of image analysis (CAS, Becton Dickinson, Erembodegem, Belgium). Infiltration results were expressed as numbers of DC per mm^2 of epithelium. […]
# Graft cryosections (5 μm in thickness) were fixed in acetone at −20° C. and in 80% methanol at 4° C. […] After washes in PBS, coverslips were mounted and labeling was analysed under an microscope equipped with epifluorescence optics.
# A control group of mice was treated with PBS alone. […] The DC infiltration in transplants was assessed by looking for stained DC in histological sections. […] Quantitative analysis of DC infiltration was performed by determining the number of DC per mm2 of epithelial tissue.
# [2] = system: DC in organotypic cultures of HPV-transformed keratinocytes; experiment: DC infiltration depth in organotypic cultures of HPV-transformed keratinocytes; format: cell-based, human; settings: 48 hours after chemoattractant addition; GM-CSF 800 U/ml, MCP-1 500 ng/ml, HNP2 750 ng/ml (FIG. 6A)
# Text: (§1) DC were generated from the adherent fraction of human PBMC (Peripheral Blood Mononuclear Cells) with 800 U/ml GM-CSF (Novartis, Brussels) and 20 U/ml IL-4 (Biosource Europe, Nivelles, Belgium), as previously described (16). DC generated for this study constituted a 90% pure cell population based on several criteria including morphology, forward-scatter and side-scatter values observed by FACS (Fluorescence Activated Cell Sorter) analysis and surface phenotype (CD1a+, CD14−, CD4+, CD54+, . . . ).
# Organotypic cultures of HPV-transformed keratinocytes (SiHa cell line (10)) were prepared as previously reported (17). After a 2 week stratification of keratinocytes, labeled DC were seeded on top of the in vitro formed epithelium at a concentration of 2×10^5 cells/50 μl of culture medium. The organotypic culture was then placed on the polycarbophil gel containing or not 800 U/ml of GM-CSF. In order to maintain the culture, the polycarbophil gel (1.5 w/w) was prepared by dispersing the Noveon AA1 in keratinocyte growth medium. […]
# The density of DC migrating into the epithelial layer was assessed by the avidin-biotin-peroxidase technique (Vectastain ABC kit, Vector laboratories, Burlingame, Calif.) with an anti-CD1a monoclonal antibody (clone NA1/34 from Dako, Glostrup, Denmark). […] The DC infiltration in organotypic cultures was evaluated by measuring the surface of immunostained cells with a computerized system of image analysis (CAS, Becton Dickinson, Erembodegem, Belgium) following a method previously described (6). The entire surface of each culture section was analyzed and 5 sections of each culture were stained with anti-CD1a. The positive surface was expressed as the percentage of the total surface analyzed. In additional experiments, the LC/DC infiltration depth in the organotypic culturs was evaluated by measuring the distance between the top of the epithelium and individual DC with a computerized system of image analysis (CAS, Becton Dikinson, Erembodegem, Belgium). We then calculated the ratio between the infiltration depth and the thickness of the culture. […]
# [3] = system: DC in organotypic cultures of HPV-transformed keratinocytes (SiHa cell line); experiment: DC infiltration into organotypic cultures of HPV-transformed keratinocytes (CD1a labeled surface); format: cell-based, human; settings: 800 U/ml GM-CSF, 48 h
# Text: as §1
# The DC were labeled with a lipophilic fluorescent marker (CM-DiL, Molecular Probes, Leiden, The Netherlands) according to a previously described procedure with minor modifications. Briefly, 4×106 DC were resuspended in 1 ml of PBS and heated to 37° C. […]
# The density of DC migrating into the epithelial layer was assessed by the avidin-biotin-peroxidase technique (Vectastain ABC kit, Vector laboratories, Burlingame, Calif.) with an anti-CD1a monoclonal antibody (clone NA1/34 from Dako, Glostrup, Denmark). […] The DC infiltration in organotypic cultures was evaluated by measuring the surface of immunostained cells with a computerized system of image analysis (CAS, Becton Dickinson, Erembodegem, Belgium) following a method previously described (6). The entire surface of each culture section was analyzed and 5 sections of each culture were stained with anti-CD1a. […]
Substance,recruitment of DC in the tumor grafts ([1]; GM-CSF applied in transplantation chamber versus control mice (FIG. 5)),"DC infiltration in the grafts, number of DC per mm2 of epithelial tissue ([1]; NOD-SCID mice, 200 μl injected twice into transplantation chamber, 4×10^5 U/ml or U/g, mean ± SD (n=5)) [DC/mm2]",DC infiltration depth in organotypic culture [2],"DC infiltration, CD1a labeled surface ([3]; mean ± SD (n=5))",density of fluorescent-labeled DC within the epithelial sheet ([3]; versus absence of GM-CSF (FIG. 4))
granulocyte macrophage—colony stimulating factor [GM-CSF],significant (p<0.001) recruitment of DC,16.6±14.6,significant increase in the density of DC observed in the epithelial layer,28.33±8.11 % of CD1a labeled surface,significant increase in the density of DC
"Human Neutrophil Peptide-2 (CYCRIPACIAGERRYGTCIYQGRLWAFCC; ends and bridges not checked; cysteine pairing not given here; UniProt P59665 66-94, looked up) [HNP2, human neutrophil defensin 2, Sigma-Aldrich]",–,–,reached an infiltration level equivalent to that obtained with GM-CSF,–,–
Monocyte Chemotactic Protein 1 [MCP1],–,–,reached an infiltration level equivalent to that obtained with GM-CSF,–,–
